# Patent US4514330A, “Carbon-7-substituted atinomycin D analogue” (Trustees of Boston University, priority 1983, dated 1985)
# Like-named read-outs stand apart in the source and are kept apart here. Starred links: 1 amine or outer side, 2 acyl side, 3 side chain; linkers in the order of their positions; H or OH if unused. Positions of bridges follow the written chain, without caps; N, C: chain ends. Non-standard residues stand in square brackets, D forms with d. Residues, ends and D or L forms follow the SMILES beside them. Chains are numbered I, II in the order given. Actinocin(9to1) = Cc1c2oc3c(C)ccc(C(=O)[*:1])c3nc-2c(C(=O)[*:2])c(N)c1=O; NMeV = CN[C@H](C(=O)O)C(C)C; Sar = CNCC(=O)O
# How the values were obtained:
# [1] = tested on: DNA; conditions: known analogues; cited from earlier work
# [2] = tested on: patients; conditions: attributed to lack of metabolism / excretion; listed as AMD; cited from earlier work
# [3] = tested on: spleen, liver, kidney, large and small intestine, heart, lung, pancreas and adrenals; experiment: Gross pathology of organ sections at LD10 (MTD) dose levels, day 14; type: in vivo, CDF1 mice
# Procedure: In an additional experiment, two animals at LD10 (or MTD) dose levels were sacrificed on day 14, and the organ sections from these animals were evaluated for gross pathology in the following way. Organs, e.g., spleen, liver, kidney, large and small intestine, heart, lung, pancreas and adrenals, were removed and fixed in 10% […] buffer formalin. They were kept immersed for 2 weeks; tissues were dehydrated through graded alcohols (70, 90, 95 and 100%), cleared in cedarwood oil and embedded in paraffin. Sections were cut in 7 μm and mounted with gelatin on microscope slides. After drying, sections were stained with Mayer's hematoxylin and eosin and examined with light microscopy.
# [4] = tested on: DNA-dependent RNA synthesis; conditions: submicromolar concentrations; cited from earlier work
# [5] = tested on: human lymphoblastic leukemic cells (CCRF-CEM); experiment: In vitro growth-inhibitory activity against human lymphoblastic leukemic cells (CCRF-CEM) in log phase; type: cell-based; conditions: Homo sapiens, final growth medium contained 1% Me2SO, log phase, read-out: ID50 (in vitro growth inhibition, CCRF-CEM)
# [6] = tested on: Wilm's tumor, gestational choriocarcinoma, and Kaposi's sarcoma; conditions: cited from earlier work
# [7] = tested on: normal CDF1 male mice; experiment: Maximum tolerated dose (LD10) in normal, tumor-free CDF1 male mice; type: in vivo; conditions: deaths during 21 days
# Procedure: ^c MTD (maximum tolerated dose) is the lethal dose
# (milligrams/kilogram) for 10% normal CDF1 male mice (18-23 g);
# were calculated from a plot of log dose vs. percent mortality. Average of
# two to three experiments.
# Biological Experiments. Determination of LD10 Values. Tumor-free CDF1 male mice weighing 18-23 g were given a broad range of doses of drugs in 10% dimethyl sulfoxide-saline on either days 1, 5 and 9 or on 4 successive days. Drugs were administered intraperitoneally (ip).
# The maximum tolerated doses of AMD and analogues that caused deaths in only 10% of the tested animals in 21 days were recorded as MTD. The results are an average of two experiments in each. The MTD values obtained following schedules q4d 1, 5, 9 (three injections) and qd 1-4 (four injections) are recorded in Table IV. These doses are the same as LD10 (lethal dose of 10% of tumor-free animals in 21 days).
# [8] = tested on: proliferating cells; conditions: cited from earlier work
# [9] = tested on: DNA; experiment: Thermal denaturation of DNA (ΔTm), stabilization of DNA helical structure on drug binding; set-up: species or system calf thymus
# Procedure: Thermal denaturation studies were carried out according to the procedure described in J. Med. Chem., Vol. 24, p. 1052 (1981). The ΔTm values in Table II give a measure of stabilization of DNA helical structure as a consequence of drug binding.
# ^a ΔTm = m of DNAdrug complex minus m of DNA.
# Concentraiton of drug, 1.4 × 10^-4 M; of DNA (P), 1.4 ×
# 10^-3 M in 0.01 M phosphate buffer (pH 7.0), 5 × 10^-3 M in
# EDTA and 5% dimethyl sulfoxide.
# ^d Highest dose tested. These values are derived at high temperatur
# (67°-75° C.) and may not always correlate with the results
# of other DNA-binding studies (e.g., absorptiometric or circular dichroic).
# Melting points were obtained with a Thomas-Hoover melting point apparatus at a heating rate of 2° C./min. Column chromatography was accomplished with silica gel powder (Baker No. 3405, 60-20 mesh) or acid alumina (Woelm grade 1). Limited gel-filtration work was done on Sephadex LH-20, particle size 25-100 μm (Pharmacia Fine Chemicals). Thin-layer chromatography was performed on silica gel plates (E. M. Laboratories, Inc.). Solvent systems used were (A) butanol-formic acid-H2 O (75:13:12), (B) EtOAc-acetone (3:1), and (C) Cifferri, the organic phase of the mixture EtOAc-MeOH-H2 O (20:1:20). High-performance liquid chromatography was carried out on a Varian Model 5020 gradient liquid chromatograph equipped with CD-111L chromatography data system and fitted with Varian reversed-phase C18 column with isocratic solvent systems, CH3 -CN-5 mM NH4 OAc buffer, pH 6.4 (68:32 or 62:38), pressure 80-140 atm, flow rate 1.5 mL/min, with UV-visible variable and fixed wavelength dual detectors at 254 and 466 nm. Spectra were determined on the following instruments: IR spectra were obtained with a Perkin-Elmer Model 237 Infra Cord with KBr micropellets or chloroform solutions; UV-visible spectra were obtained on a Gilford 250 spectrophotometer, which, with the addition of a base-line reference compensator (Analog Multiplexer 6064) and thermoprogrammer, auto four cell programmer and thermoelectric cell holder 2577, was used to obtain thermal denaturation curves; NMR spectra were obtained on a JOEL FQ-90-90MHZ spectrometer equipped with Fourier transform; and CD spectra were obtained on a Cary 61 spectrophotometer. All elemental analyses were within ±0.4% of the theoretical values. Actinomycin D, batch no. NCS 3053, lot L554651-0-10, was provided by Natural Products Branch, National Cancer Institute, Silver Spring, Md. Calf thymus DNA type 1 was purchased from Sigma Chemical Co.
# [10] = tested on: P-388 leukemia; experiment: In vivo antitumor activity against P-388 lymphocytic leukemia in CDF1 mice; conditions: for % ILS (percent increase in life span) / MST (median survival time) / cure (over 55 day survivors): days 1, 5, 9; for minimal effective dose: Mus musculus, P388, ip, read-out: MED (minimum effective dose, 40% increase in life span over control)
# Procedure: Studies on in vivo activity of AMD and AMD analogues were carried out with P-388 lymphocytic leukemia in CDF1 hybrid mice. The drugs were administered either daily for 4 successive days (qd 1-4) or on days 1, 5 and 9 (q4d 1, 5, 9) beginning 1 day after tumor implantation.
# ^a Male CDF1 (18-23 g) mice were inoculated intraperitoneally
# (ip) with 10^6 P388 cells on day 0. Drugs were administered, also ip,
# in 10% dimethyl sulfoxidesaline on days 1, 5 and 9. Test solutions were
# kept at 0-4° C., protected from light, and the stability and
# homogeneity were checked periodically by TLC and HPLC.
# ^b MST = median survival time.
# ^c % ILS = percent increase in life span.
# ^d Over 55 day survivors. Average of three experiments. The
# ^a Drugs administed ip once daily either for 4 successive days (qd
# 1-4) or on days 1, 5 and 9 (q4d 1, 5 9), starting 1 day after tumor
# ^b MED (minimum effective dose) is the dose (milligrams/kilogram)
# providing an increase in life span of 40% over control in P388
# [11] = cited from earlier work
# [12] = three injections ip, q4d 1, 5, 9
structure (smiles),measurement,setting,value
"Cc1c2oc3c(C)ccc(C(=O)N[C@@H]4C(=O)N[C@H](C(C)C)C(=O)N5CCC[C@H]5C(=O)N(C)CC(=O)N(C)[C@@H](C(C)C)C(=O)O[C@@H]4C)c3nc-2c(C(=O)N[C@@H]2C(=O)N[C@H](C(C)C)C(=O)N3CCC[C@H]3C(=O)N(C)CC(=O)N(C)[C@@H](C(C)C)C(=O)O[C@@H]2C)c(N)c1=O [Compound 1b, Actinomycin D, reference compound] (I: T[dV]P[Sar][NMeV] / II: T[dV]P[Sar][NMeV]; ester I:1-I:C, II:1-II:C; linker I:N-II:N via Actinocin(9to1))","mode of DNA binding, same way as AMD",[1],by intercalation of the chromophore and concomitant hydrogen and hydrophobic interactions of the peptide lactones
same,toxicity,[2],acute and cumulative toxicity
same,pathology of spleen sections,[3],haematopoiesis indicative of bone-marrow toxicity
same,inhibition of DNA-dependent RNA synthesis,[4],strongly inhibits
same,IC50,[5],0.06 µg/mL
same,activity in several tumors,[6],potent activity
same,"MTD (maximum tolerated dose, lethal for 10% of normal mice; = LD10)","[7]; four injections ip, qd 1-4",0.15 milligrams/kilogram
same,"MTD (maximum tolerated dose, lethal for 10% of normal mice; = LD10)",[7]; [12],0.25 milligrams/kilogram
same,"cytotoxicity in proliferating cells versus nonproliferating (liver, kidney, muscle)",[8],far more cytotoxic in those proliferating cells
same,Tm (ΔTm = Tm of DNA-drug complex minus Tm of DNA),"[9]; drug 1.4 × 10^-4 M, DNA (P) 1.4 × 10^-3 M, 0.01 M phosphate buffer pH 7.0, EDTA, 5% dimethyl sulfoxide",7.1 ± 0.15 °C
same,DNA melting profile / ΔTm character of the DNA complex,"[9]; thermal denaturation, words",sharp and smooth
same,% ILS (percent increase in life span),[10]; 0.031 mg/kg ip,18%
same,MST (median survival time),[10]; 0.031 mg/kg ip,13 days
same,cure (over 55 day survivors),[10]; 0.031 mg/kg ip,0/7
same,% ILS (percent increase in life span),[10]; 0.062 mg/kg ip,45%
same,MST (median survival time),[10]; 0.062 mg/kg ip,16 days
same,cure (over 55 day survivors),[10]; 0.062 mg/kg ip,1/7
same,% ILS (percent increase in life span),[10]; 0.125 mg/kg ip,136%
same,MST (median survival time),[10]; 0.125 mg/kg ip,26 days
same,cure (over 55 day survivors),[10]; 0.125 mg/kg ip,0/7
same,% ILS (percent increase in life span),[10]; 0.250 mg/kg ip,55%
same,MST (median survival time),[10]; 0.250 mg/kg ip,17 days
same,cure (over 55 day survivors),[10]; 0.250 mg/kg ip,0/7
same,MST (median survival time),[10]; 0.375 mg/kg ip,9 days
same,minimal effective dose,"[10]; four injections ip, qd 1-4",0.05 mg/kg
same,minimal effective dose,[10]; [12],0.0625 mg/kg
same,therapeutic index: MTD/MED,"[10]; four injections ip, qd 1-4",3
same,"activity in respect of % ILS, 1b versus 2b","[10]; ip, q4d 1, 5, 9",approximately equiactive
same,breadth of dose-response curve,"[10]; ip, q4d 1, 5, 9",very narrow
same,therapeutic index: MTD/MED,[10]; [12],4
same,in vivo metabolism,[11],not metabolized in vivo
